The values that follow come from patent US8452543B2, “High throughput screening for antimicrobial dosing regimens” (priority 2005, dated 2013).

Assay [1] deals with P. aeruginosa PA 27853 and resistant isolates MR1, MR2, MR3. The assay is described as follows: microbe, parasite or virus in culture. It is filed as cell-based, Pseudomonas aeruginosa. To be noted: Pseudomonas aeruginosa. How it is done:
Minimum inhibitory concentration (MIC)/minimum bactericidal concentration (MBC) were determined in Ca-MHB using a modified macrobroth dilution method as described by the CLSI (10). The final concentration of bacteria in each macrobroth dilution tube was approximately 5×10^5 cfu/ml of Ca-MHB. Serial twofold dilutions of meropenem were used. […] Samples (50 μl) from clear tubes and the cloudy tube with the highest drug concentration were plated on Mueller-Hinton agar (MHA) plates (Hardy Diagnostics, Santa Maria, Calif.). […] Drug carry-over effect was assessed by visual inspection of the distribution of colonies on media plates. The studies were conducted in duplicate and repeated at least once on a separate day.

Assay [2] shares this test system. The assay is described as follows: microbe, parasite or virus in culture. Format: cell-based. The settings on record: Pseudomonas aeruginosa, Etest.
Assay [3] relates to amikacin resistant A. baumannii isolates. The assay is described as follows: Resistance confirmation, repeat susceptibility testing, amikacin. Format: cell-based, Acinetobacter baumannii. To be noted: for cross-resistance: amikacin resistant isolates.
Experimental: The media plates were incubated at 35° C. for up to 24 (total population) and 72 hours (sub-populations with reduced susceptibility), then bacterial density from each sample was enumerated visually. The theoretical lower limit of detection was 400 CFU/ml.
Assay [4] deals with A. baumannii ATCC BAA 747. The assay is described as follows: Time-kill studies and best-fit model, amikacin. Format: cell-based, Acinetobacter baumannii.
For assay [5], the system named is A. baumannii ATCC BAA 747. Kind of assay: MIC/MBC, modified macrobroth dilution. Format: cell-based. To be noted: Acinetobacter baumannii, BAA747; A. baumannii isolate (AB BAA 747). How it is done: (§1) The final concentration of bacteria in each macrobroth dilution tube was approximately 5×10^5 cfu/ml of Ca-MHB. Serial twofold dilutions of meropenem were used. […] Samples (50 μl) from clear tubes and the cloudy tube with the highest drug concentration were plated on Mueller-Hinton agar (MHA) plates (Hardy Diagnostics, Santa Maria, Calif.). […] Drug carry-over effect was assessed by visual inspection of the distribution of colonies on media plates. The studies were conducted in duplicate and repeated at least once on a separate day.

For assay [6], the system named is levofloxacin resistant P. aeruginosa isolates. Kind of assay: Susceptibility of levofloxacin resistant isolates, screening panel. It is filed as cell-based, Pseudomonas aeruginosa.
The test system of assay [7] is P. aeruginosa ATCC 27853. Kind of assay: MIC/MBC, modified macrobroth dilution. It is filed as cell-based, Pseudomonas aeruginosa. The settings on record: P. aeruginosa ATCC 27853. As to the method:
as §1

Assay [8] relates to P. aeruginosa ATCC 27853. Kind of assay: Time-kill studies and model fit, levofloxacin. The settings on record: for EC50: Pseudomonas aeruginosa. It is filed as cell-based, Pseudomonas aeruginosa. How it is done: An overnight culture of the isolate was diluted 30-fold with pre-warmed Ca-MHB and incubated further at 35 C until reaching late log phase growth. The bacterial suspension was diluted with Ca-MHB accordingly based on absorbance at 630 nm; 15 mL of the suspension was transferred to 50 mL sterile conical flasks each containing 1 mL of a drug solution at 16·the target concentration. The final concentration of the bacterial suspension in each flask at baseline was approximately 1×10^8 CFU/mL.
The high inoculum was used to simulate the bacterial load in a severe infection, e.g., nosocomial pneumonia. Furthermore, the high inoculum used would allow resistant sub-population(s) to be likely present at baseline. The experiment was conducted for 24 h in a shaker water bath set at 35° C. Serial samples (baseline, 0.5, 1, 2, 4, 8, 12, and 24 h) were obtained from each flask over 24 h to characterize the effect of various drug exposures on the total bacterial population.
Prior to culturing the bacteria quantitatively, the bacterial samples (0.5 mL) were centrifuged at 10,000 g for 15 min, and reconstituted with sterile normal saline to their original volumes in order to minimize drug carry-over effect. Total bacterial populations were quantified by spiral plating 10 serial dilutions of the samples (50 IL) onto Ca-MHA plates. The media plates were incubated in a humidified incubator (35° C. for 18-24 h, and the bacterial density from each sample was determined by CASBA-4 colony scanner/software (Spiral Biotech, Bethesda, Md.). The reliable limit of detection was 400 CFU/mL. The experiment was repeated once on a separate day.
The mathematical framework described Example 1 is used to predict whether a microbial population will be eradicated or survive under an antimicrobial pressure whose concentration over time follows a clinically realistic (time-periodic) profile. For absence of agent (placebo, C=0 Ig/mL) and by inspection in FIG. 13 it is determined that Nmax=10^9.4 CFU/mL. Using this value for Nmax standard nonlinear least squares (differential evolution of mathematica) is used to get a growth rate constant value Kg=0.22 h^−1.
It is assumed that Kg is the same for all bacterial sub-populations, owing to common basic physiology. For the highest agent concentration used (C=64 Ig/mL) there appears to be complete eradication of the entire microbial population after the third sample in time. Therefore, no experimental points beyond that are considered in the data fit. Further, it is assumed that the maximum kill rate, Kk, occurring at an antibiotic concentration high enough to saturate all bacterial target sites, is the same for all bacteria, namely Kk=Kb. […] The values of the remaining parameters are estimated using standard nonlinear least squares for concentrations C=0.5, . . . , 32 Ig/mL (Table 4).

Setting [9] is: strain MR1 (Placebo exposure, OprD−).
Where [10] appears, read: strain MR2 (Cmin/MIC 0.5, OprD− & Mex+).
Where [11] appears, read: strain MR3 (Cmin/MIC 1.7, OprD− & Mex+), read-out: MIC.

≈ marks a conversion by molar mass, not a printed value. Like-named read-outs stand apart in the source and are kept apart here.

Turning to `CC1(C)S[C@@H]2[C@H](NC(=O)C(C(=O)O)c3ccccc3)C(=O)N2[C@H]1C(=O)O` (stereo partly shown) [CAR, carbenicillin], the MIC in assay [1] (strain MR2 (Cmin/MIC 0.5, OprD− & Mex+), macrobroth method) was 512 µg/mL (≈ 1350 µM); in assay [1] (strain MR3 (Cmin/MIC 1.7, OprD− & Mex+), macrobroth method, read-out: MIC), 512 µg/mL (≈ 1350 µM); in assay [1] (strain PA 27853, macrobroth method), 64 µg/mL (≈ 169 µM).

As for `CC(C)(O/N=C(\C(=O)N[C@@H]1C(=O)N2C(C(=O)[O-])=C(C[n+]3ccccc3)CS[C@H]12)c1csc(N)n1)C(=O)O` [CAZ, ceftazidime], the MIC was determined as 1 µg/mL (≈ 1.83 µM) in assay [2] (setting [9]), 2 µg/mL (≈ 3.66 µM) in assay [2] (setting [10]), 4 µg/mL (≈ 7.32 µM) in assay [2] (setting [11]) and 1 µg/mL (≈ 1.83 µM) in assay [2] (strain PA 27853).

For the molecule `C[C@@H](O)[C@H]1C(=O)N2C(C(=O)O)=C(SCCN=CN)C[C@H]12` [IPM, imipenem], the MIC in assay [2] (setting [9]) was more than 32 µg/mL; in assay [2] (setting [10]), more than 32 µg/mL; in assay [2] (setting [11]) it was 32 µg/mL (≈ 107 µM); in assay [2] (strain PA 27853), 3 µg/mL (≈ 10 µM).

Regarding `CCN1CCN(C(=O)N[C@@H](C(=O)N[C@@H]2C(=O)N3[C@@H]2SC(C)(C)[C@@H]3C(=O)O)c2ccccc2)C(=O)C1=O` [PIP, piperacillin], the MIC in assay [2] (setting [9]) is 3 µg/mL (≈ 5.8 µM); in assay [2] (setting [10]) it was 8 µg/mL (≈ 15.5 µM); in assay [2] (setting [11]), 32 µg/mL (≈ 61.8 µM); in assay [2] (strain PA 27853) it was 3 µg/mL (≈ 5.8 µM).

As for `NC[C@H]1O[C@H](O[C@H]2[C@H](O)[C@@H](O[C@H]3O[C@H](CO)[C@@H](O)[C@H](N)[C@H]3O)[C@H](N)C[C@@H]2N)[C@H](N)C[C@@H]1O` [TOB, tobramycin], the MIC in assay [2] (setting [9]), in assay [2] (setting [10]), in assay [2] (setting [11]) and in assay [2] (strain PA 27853) was 0.5 µg/mL (≈ 1.07 µM) throughout. The cross-resistance result in assay [3] was “observed”.

As to `NCC[C@H](O)C(=O)N[C@@H]1C[C@H](N)[C@@H](O[C@H]2O[C@H](CN)[C@@H](O)[C@H](O)[C@H]2O)[C@H](O)[C@H]1O[C@H]1O[C@H](CO)[C@@H](O)[C@H](N)[C@H]1O` [amikacin], in assay [4] (AB BAA 747), the H stood at 3.06, the Kk stood at 27.81 h⁻¹, the β amounted to 50.09 and the τ amounted to 442 µL/min/mg. Besides, the EC50 in assay [4] (Acinetobacter baumannii, BAA747, AB BAA 747, read-out: C50k) was 1.56 µg/mL (≈ 2.66 µM). Besides, the “concentrations with complete bacterial eradication” value in assay [4] (after 2 hours of drug exposure) was more than 16 mg/L. The stability of resistance entry in assay [3] (resistant isolates from sub-optimal dosing regimens) is “phenotypically stable”. In assay [5], this molecule registered an MBC of 8 µg/mL (≈ 13.7 µM) and an MIC of 4 µg/mL (≈ 6.83 µM).

For the molecule `CO/N=C(\C(=O)N[C@@H]1C(=O)N2C(C(=O)[O-])=C(C[N+]3(C)CCCC3)CS[C@H]12)c1csc(N)n1` [cefepime], the cross-resistance result in assay [3] is reported as “not”.

For the molecule `O=C(O)c1cn(C2CC2)c2cc(N3CCNCC3)c(F)cc2c1=O` [ciprofloxacin], the “cross resistance, change in MIC” value in assay [6] (levofloxacin resistant isolates) is not below 4 fold.

Turning to `C[C@H]1COc2c(N3CCN(C)CC3)c(F)cc3c(=O)c(C(=O)O)cn1c23` [levofloxacin], the MIC came out at 0.75 µg/mL (≈ 2.08 µM) in assay [2] (setting [9]); 4 µg/mL (≈ 11.1 µM) in assay [2] (setting [10]); 0.75 µg/mL (≈ 2.08 µM) in assay [2] (strain PA 27853); 6 µg/mL (≈ 16.6 µM) in assay [1]; 2 Ig/mL in the assay with P. aeruginosa ATCC 27853 [7]. Also, the EC50 in the assay on P. aeruginosa ATCC 27853 [8] (ATCC27853, read-out: C50) stood at 0.86 µg/mL (≈ 2.38 µM); with P. aeruginosa ATCC 27853 [8] (ATCC27853, read-out: C50b), 39.4 µg/mL (≈ 109 µM). The same molecule came in with a C50A in the assay with P. aeruginosa ATCC 27853 [8] (model fit) of 0.45 µg/mL. This molecule returned a H in the assay on P. aeruginosa ATCC 27853 [8] (model fit) of 1.7. For the same molecule, the HA in the assay with P. aeruginosa ATCC 27853 [8] (model fit) is given as 10. The Hb in the assay on P. aeruginosa ATCC 27853 [8] (model fit) is reported as 24. The “increase in MIC compared to the parent strain” value in assay [6] (two random isolates from drug supplemented media plates) was 16 fold.
